Results published in US8716475B2, “2-aminopyrimidine modulators of the histamine H4 receptor” (Janssen Pharmaceutica NV, priority 2007, dated 2014).
pKi: −log10 of the molar value.

What follows are molecules tested against T1, human H4 receptor (Homo sapiens, UniProt Q9H3N8) (assay: Binding Assay on Recombinant Human Histamine H4 Receptor). Settings: Table 1; [3H] histamine competition binding, membranes of SK-N-MC cells transfected with human H4 receptor; average of results.
T1 construct: expressed in transfected cells
T1 sequence (Q9H3N8 whole entry): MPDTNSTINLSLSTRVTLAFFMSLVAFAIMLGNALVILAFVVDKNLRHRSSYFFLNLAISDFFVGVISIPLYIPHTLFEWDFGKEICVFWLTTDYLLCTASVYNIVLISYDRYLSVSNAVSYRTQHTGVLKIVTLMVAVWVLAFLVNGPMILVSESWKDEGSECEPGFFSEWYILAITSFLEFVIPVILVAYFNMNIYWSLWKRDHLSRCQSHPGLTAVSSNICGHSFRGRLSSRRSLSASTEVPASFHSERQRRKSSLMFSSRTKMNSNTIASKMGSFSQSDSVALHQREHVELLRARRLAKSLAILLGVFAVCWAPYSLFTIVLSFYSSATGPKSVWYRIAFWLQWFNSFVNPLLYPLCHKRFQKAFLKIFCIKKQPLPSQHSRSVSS
Experimental: Binding Assay on Recombinant Human Histamine H4 Receptor.
Cell pellets from SK-N-MC cells stably or transiently transfected with human H4 receptor were used for the binding assays. Cell pellets were homogenized in 50 mM Tris/5 mM EDTA buffer and supernatants from an 800g spin were collected and recentrifuged at 30,000g for 30 min. Pellets were rehomogenized in 50 mM Tris/5 mM EDTA buffer. […] Compounds were tested in free base, hydrochloride salt, or trifluoroacetic acid form. Nonspecific binding was defined with 100 μM cold histamine. […] Membranes were harvested by rapid filtration using the 96 well Brandel system or a cell harvester using a Whatman GF/C filter or filter plates treated with 0.5% polyethylenimine (PEI), and washed 4 times with ice-cold 50 mM Tris/5 mM EDTA buffer. Filters were then dried, mixed with scintillant and radioactive counts were determined. […] Data marked with an asterisk (*) were obtained by the cell harvester method. Where activity is shown as greater than (>) a particular value, the value is the highest concentration tested.

Row | SMILES | pKi
1 | Cc1nc(N)nc(N2C[C@@H]3C[C@H]2CN3)c1C [Example 32, (S,S)-4-(2,5-Diaza-bicyclo[2.2.1]hept-2-yl)-5,6-dimethyl-pyrimidin-2-ylamine] | < 5.00
2 | CCc1cc(N2CCNCC2)nc(N)n1 [Example 33, 4-Ethyl-6-piperazin-1-yl-pyrimidin-2-ylamine] | 8.00
3 | CCc1cc(N2CCN(C)CC2)nc(N)n1 [Example 34, 4-Ethyl-6-(4-methyl-piperazin-1-yl)-pyrimidin-2-ylamine] | 8.22
4 | CCc1cc(N2CC[C@@H](N)C2)nc(N)n1 [Example 35, (R)-4-(3-Amino-pyrrolidin-1-yl)-6-ethyl-pyrimidin-2-ylamine] | 7.68
5 | CCc1cc(N2CC[C@@H](NC)C2)nc(N)n1 [Example 36, (R)-4-Ethyl-6-(3-methylamino-pyrrolidin-1-yl)-pyrimidin-2-ylamine] | 7.68
6 | CCc1cc(N2C[C@H]3CCN[C@H]3C2)nc(N)n1 [Example 37, (R,R)-(4-Ethyl-6-hexahydro-pyrrolo[3,4-b]pyrrol-5-yl)-pyrimidin-2-ylamine] | 7.57
7 | CCc1cc(N2C[C@H]3CNC[C@H]3C2)nc(N)n1 [Example 38, 4-Ethyl-6-(cis-hexahydro-pyrrolo[3,4-c]pyrrol-2-yl)-pyrimidin-2-ylamine] | 6.25
8 | CCc1cc(N2C[C@H]3CCCN[C@H]3C2)nc(N)n1 [Example 39, (R,R)-(4-Ethyl-6-octahydro-pyrrolo[3,4-b]pyridin-6-yl)-pyrimidin-2-ylamine] | 8.00
9 | CN1CCN(c2cc(C3CC3)nc(N)n2)CC1 [Example 40, 4-Cyclopropyl-6-(4-methyl-piperazin-1-yl)-pyrimidin-2-ylamine] | 8.10
10 | CN[C@@H]1CCN(c2cc(C3CC3)nc(N)n2)C1 [Example 41, (R)-(4-Cyclopropyl-6-3-methylamino-pyrrolidin-1-yl)-pyrimidin-2-ylamine] | 7.55
11 | Nc1nc(C2CC2)cc(N2CC3CCCNC3C2)n1 (stereo not drawn) [Example 42, 4-Cyclopropyl-6-(cis-octahydro-pyrrolo[3,4-b]pyridin-6-yl)-pyrimidin-2-ylamine] | 7.74
12 | Nc1nc(C2CCC2)cc(N2CCNCC2)n1 [Example 43, 4-Cyclobutyl-6-piperazin-1-yl-pyrimidin-2-ylamine] | 8.70
13 | CN1CCN(c2cc(C3CCC3)nc(N)n2)CC1 [Example 44, 4-Cyclobutyl-6-(4-methyl-piperazin-1-yl)-pyrimidin-2-ylamine] | 9.00
14 | Nc1nc(C2CCC2)cc(N2CCC[C@@H](N)C2)n1 [Example 45, (R)-4-(3-Amino-piperidin-1-yl)-6-cyclobutyl-pyrimidin-2-ylamine] | 6.99
15 | CN[C@@H]1CCN(c2cc(C3CCC3)nc(N)n2)C1 [Example 46, (R)-4-Cyclobutyl-6-(3-methylamino-pyrrolidin-1-yl)-pyrimidin-2-ylamine] | 8.70
16 | Nc1nc(C2CCC2)cc(N2CC3CCNC3C2)n1 (stereo not drawn) [Example 47, 4-Cyclobutyl-6-(cis-hexahydro-pyrrolo[3,4-b]pyrrol-5-yl)-pyrimidin-2-ylamine] | 7.96
17 | Nc1nc(C2CCC2)cc(N2C[C@H]3CNC[C@H]3C2)n1 [Example 48, 4-Cyclobutyl-6-(cis-hexahydro-pyrrolo[3,4-c]pyrrol-2-yl)-pyrimidin-2-ylamine] | 6.48
18 | CN1C[C@@H]2CN(c3cc(C4CCC4)nc(N)n3)C[C@@H]2C1 [Example 49, 4-Cyclobutyl-6-(cis-5-methyl-hexahydro-pyrrolo[3,4-c]pyrrol-2-yl)-pyrimidin-2-ylamine] | 7.30

Row | SMILES | pKi
19 | Nc1nc(C2CCC2)cc(N2CC3CCCNC3C2)n1 (stereo not drawn) [Example 50, 4-Cyclobutyl-6-(cis-octahydro-pyrrolo[3,4-b]pyridin-6-yl)-pyrimidin-2-ylamine] | 8.52
20 | Nc1nc(C2CCC2)cc(N2C[C@H]3CCCN[C@H]3C2)n1 [Example 51, (R,R)-(4-Cyclobutyl-6-cis-octahydro-pyrrolo[3,4-b]pyridin-6-yl)-pyrimidin-2-ylamine] | 8.52
21 | CN1CCN(c2cc(C3CCCCC3)nc(N)n2)CC1 [Example 52, 4-Cyclohexyl-6-(4-methyl-piperazin-1-yl)-pyrimidin-2-ylamine] | 8.52
22 | CN[C@@H]1CCN(c2cc(C3CCCCC3)nc(N)n2)C1 [Example 53, (R)-(4-Cyclohexyl-6-3-methylamino-pyrrolidin-1-yl)-pyrimidin-2-ylamine] | 8.52
23 | Nc1nc(C2CCCCC2)cc(N2CC3CCNC3C2)n1 (stereo not drawn) [Example 54, 4-Cyclohexyl-6-(cis-hexahydro-pyrrolo[3,4-b]pyrrol-5-yl)-pyrimidin-2-ylamine] | 8.70
24 | Nc1nc(C2CCCCC2)cc(N2C[C@H]3CCCN[C@H]3C2)n1 [Example 55, (R,R)-4-Cyclohexyl-6-(octahydro-pyrrolo[3,4-b]pyridin-6-yl)-pyrimidin-2-ylamine] | 9.00
25 | Nc1nc(C2CCOC2)cc(N2CCNCC2)n1 (stereo not drawn) [Example 56, 4-piperazin-1-yl-6-(tetrahydro-furan-3-yl)-pyrimidin-2-ylamine] | 7.70
26 | CN1CCN(c2cc(C3CCOC3)nc(N)n2)CC1 (stereo not drawn) [Example 57, 4-(4-Methyl-piperazin-1-yl)-6-(tetrahydro-furan-3-yl)-pyrimidin-2-ylamine] | 7.57
27 | Nc1nc(C2CCOCC2)cc(N2CCNCC2)n1 [Example 58, 4-piperazin-1-yl-6-(tetrahydro-pyran-4-yl)-pyrimidin-2-ylamine] | 7.39
28 | CN1CCN(c2cc(C3CCOCC3)nc(N)n2)CC1 [Example 59, 4-(4-Methyl-piperazin-1-yl)-6-(tetrahydro-pyran-4-yl)-pyrimidin-2-ylamine] | 7.54
29 | CN[C@@H]1CCN(c2cc(C3CCOCC3)nc(N)n2)C1 [Example 60, (R)-4-(3-Methylamino-pyrrolidin-1-yl)-6-(tetrahydro-pyran-4-yl)-pyrimidin-2-ylamine] | 7.51
30 | Nc1nc(C2CCOCC2)cc(N2C[C@H]3CCCN[C@H]3C2)n1 [Example 61, (R,R)-4-(Octahydro-pyrrolo[3,4-b]pyridin-6-yl)-6-(tetrahydro-pyran-4-yl)-pyrimidin-2-ylamine] | 7.62
31 | Nc1nc(Cc2ccccc2)cc(N2CCNCC2)n1 [Example 62, 4-Benzyl-6-piperazin-1-yl-pyrimidin-2-ylamine] | 7.52
32 | CN1CCN(c2cc(Cc3ccccc3)nc(N)n2)CC1 [Example 63, 4-Benzyl-6-(4-methyl-piperazin-1-yl)-pyrimidin-2-ylamine] | 7.68
33 | Nc1nc(Cc2ccccc2)cc(N2C[C@H]3CCCN[C@H]3C2)n1 [Example 65, (R,R)-4-Benzyl-6-(octahydro-pyrrolo[3,4-b]pyridin-6-yl)-pyrimidin-2-ylamine] | 7.33
34 | CN1CCN(c2nc(N)nc3c2CCCC3)CC1 [Example 66, 4-(4-Methyl-piperazin-1-yl)-5,6,7,8-tetrahydro-quinazolin-2-ylamine] | 8.40
35 | Nc1nc2c(c(N3CC[C@@H](N)C3)n1)CCCC2 [Example 68, (R)-4-(3-Amino-pyrrolidin-1-yl)-5,6,7,8-tetrahydro-quinazolin-2-ylamine] | 6.94
36 | CN[C@@H]1CCN(c2nc(N)nc3c2CCCC3)C1 [Example 69, (R)-4-(3-Methylamino-pyrrolidin-1-yl)-5,6,7,8-tetrahydro-quinazolin-2-ylamine] | 7.37
